Assay [1] relates to α5β1 integrin. The experiment in a line: Inhibition of attachment of CHO C11 cells to fibronectin. It counts as cell-based, Chinese hamster. From the text: Cell lines expressing different integrins were used to examine peptide inhibition of integrin function. A human melanoma cell line, C8161, a fibroblast cell line, WI-38, and an osteosarcoma cell line, MG-63 (described by Seftor et al., Canc. Res., 53:3411–3415 (1993); Vogel et al., J. Biol. Chem., 265:5934–5937 (1990); and Pytela et al. (1985), supra, respectively, each of which is incorporated herein by reference) attach to fibronectin through α5β1 integrin, as does B2/α27, a CHO cell line transfected with human α5. B2/C1, the control parental CHO line (Bauer et al., J. Cell. Biol. 116:477–487 (1992), which is incorporated herein by reference), attaches via […]. CHO cells C11 and NIH 3T3 cells express the endogenous Chinese hamster and mouse α5β1 integrins, respectively. The human melanoma cells, A375-M, attach to fibronectin through both α5β1 and α4β1 integrins (Mould et al., J. Biol. Chem. 265:4020–4024 (1990), which is incorporated herein by reference). CHO cell line B2/v7 express the αvβ1 integrin (Zhang et al., J. Cell. Biol. 122:235–242 (1993), which is incorporated herein by reference). […]
Cell lines expressing fibronectin-binding integrins were used to determine peptide activities against these integrins in the cell attachment assay described by Ruoslahti et al., Meth. […] Bound cells were quantitated by staining with 0.1% amido black.

The test system of assay [2] is α5β1 integrin. Kind of assay: Cell attachment to immobilized […] peptide (B2/α27 vs B2/Cl cells). It counts as cell-based, human. From the text:
Cell lines expressing fibronectin-binding integrins were used to determine peptide activities against these integrins in the cell attachment assay described by Ruoslahti et al., Meth. Enzymol., 144:803–831 (1982), which is incorporated herein by reference. Human plasma fibronectin was iodinated as described by Morla and Ruoslahti, J. Cell Biol., 118:421–429 (1992), which is incorporated herein by reference. Vitronectin was obtained from Telios Pharmaceuticals (San Diego, Calif.). […] Peptide was coated on plastic by incubating at 37° C. for 2 hours in phosphate buffered saline containing 0.25% glutaraldehyde to crosslink the peptide. Free binding sites on the plastic were blocked using BSA. Approximately 1×10^5 cells per well were allowed to attach for 1 hour in the presence or absence of competing peptides. Bound cells were quantitated by staining with 0.1% amido black.
In addition to the inhibition of cell attachment to natural ligands, attachment and inhibition assays were performed using the […] [SEQ ID NO:6] peptide as substrate. The microliter well were coated with […] [SEQ ID NO:6] using glutaraldehyde as described above. Briefly, peptide was coated on plastic by incubating at 37° C. for 2 hours in phosphate buffered saline containing 0.25% glutaraldehyde to crosslink the peptide and free binding sites on the plastic were blocked using BSA. The wells were then saturated with BSA followed by the addition of 50,000 B2/α27 or B2/Cl cells in the presence or absence of the indicated inhibitor. […] Bound cells were quantitated by staining with 0.1% amido black.
Target sequence in this assay (P08648 42-894 limits assumed): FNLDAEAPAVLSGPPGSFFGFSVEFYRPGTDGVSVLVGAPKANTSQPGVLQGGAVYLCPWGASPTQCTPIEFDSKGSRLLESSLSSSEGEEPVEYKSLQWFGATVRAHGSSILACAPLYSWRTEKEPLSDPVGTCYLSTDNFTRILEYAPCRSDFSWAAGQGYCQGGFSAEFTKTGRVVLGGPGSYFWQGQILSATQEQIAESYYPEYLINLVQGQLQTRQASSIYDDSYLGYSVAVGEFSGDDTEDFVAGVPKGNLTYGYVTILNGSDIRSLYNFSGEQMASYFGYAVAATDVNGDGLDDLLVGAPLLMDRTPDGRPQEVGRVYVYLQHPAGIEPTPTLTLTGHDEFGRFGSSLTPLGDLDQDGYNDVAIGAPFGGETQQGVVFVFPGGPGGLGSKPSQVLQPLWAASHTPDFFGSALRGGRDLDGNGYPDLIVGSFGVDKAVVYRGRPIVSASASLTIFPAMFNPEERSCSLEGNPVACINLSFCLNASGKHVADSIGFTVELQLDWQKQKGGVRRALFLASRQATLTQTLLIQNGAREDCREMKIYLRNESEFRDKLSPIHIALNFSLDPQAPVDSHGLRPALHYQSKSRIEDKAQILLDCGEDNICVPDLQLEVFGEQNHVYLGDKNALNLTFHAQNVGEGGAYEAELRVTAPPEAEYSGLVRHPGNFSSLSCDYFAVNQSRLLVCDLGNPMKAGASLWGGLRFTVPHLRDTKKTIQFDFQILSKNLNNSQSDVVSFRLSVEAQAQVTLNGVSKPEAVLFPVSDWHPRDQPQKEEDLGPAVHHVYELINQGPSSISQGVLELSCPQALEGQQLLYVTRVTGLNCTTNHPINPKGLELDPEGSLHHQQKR
Target sequence in this assay (P08648 895-1049 limits assumed): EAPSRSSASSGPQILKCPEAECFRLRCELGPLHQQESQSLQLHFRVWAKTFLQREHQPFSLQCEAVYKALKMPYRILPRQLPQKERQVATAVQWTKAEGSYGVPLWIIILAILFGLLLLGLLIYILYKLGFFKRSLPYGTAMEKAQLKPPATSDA

The target of assay [3] is T1, α5β1 integrin (Homo sapiens, UniProt P05556+P08648).
T1 construct: The αvβ3, αvβ5 and α5β1 integrins were isolated from human placental extracts; from tissue; host or cells: human placenta
Kind of assay: Panning and binding of peptide-displaying phage on α5β1 integrin. The settings on record: phage-displayed sequence. From the text:
In addition, most of the phage-binding activity in the αvβ3 preparation was captured into microliter wells coated with antibodies against the αv or β3 subunits as described previously (Koivunen et al., J. Biol. Chem., 268:20205–10 (1993). The αIIbβ3 integrin was isolated from outdated platelets (Pytela et al., Science, 231:1559–1562 (1986)).
Peptide libraries were constructed in fuse 5 vector (Scott and Smith, Science 249:386–390 (1990)) as described previously (Koivunen et al., J. Cell Biol., 124:373–380 (1994). The CX5C, CX6C, CX7C and CX9 [SEQ ID NOs:39–42, respectively] libraries were prepared using synthetic oligonucleotides containing core sequences TGT(NNK)5TGT, TGT(NNK)6TGT, TGT(NNK)7TGT and TGT(NNK)9 [SEQ ID NOS:43–46, respectively] (N=equal molar mixture of A, C, G, T; K=G or T), respectively. The oligonucleotides were made double-stranded by PCR amplification with 5 cycles, purified and ligated to the N-terminus of pIII gene of fuse 5 vector. The CX5C, CX6C, CX7C and CX9 [SEQ ID NOS:39–42, respectively] vectors were transfected into MC1061 cells using 16, 60, 263 and 250 electroporations, respectively. Bacteria were cultured for 24 hours in the presence of 20 μg/ml of tetracycline, and phage were collected from the supernatant by precipitation twice with polyethylene glycol. The phage pellets were dissolved at approximately 10^13 transducing units (TU)/ml in TBS buffer containing 0.02% NaN3 and stored at 4° C. The yields of the CX5C, CX6C, CX7C and CX9 [SEQ ID NOS:39–42, respectively] primary libraries were 3.5×10^8, 1.1×10^9, 4.5×10^5 and 3.5×10^8 clones, respectively. […]
Binding of individual cloned phage to integrins was studied in microliter wells as described in Koivunen et al., J. Cell. […] Phage that were bound were determined by their ability to infect F-pilus positive K91kan bacteria. Bacteria were grown overnight in microliter wells in the presence of tetracycline and the absorbance indicative of bacterial growth was read at 600 nm with an ELISA plate reader.

Here are results for one sequence from patent US7067619B2, “Integrin-binding peptides” (La Jolla Cancer Research Foundation, priority 1993, dated 2006).

T1 sequence (P08648 42-894 limits assumed): as the sequence (P08648 42-894 limits assumed) above
T1 sequence (P08648 895-1049 partner limits assumed): as the sequence (P08648 895-1049 limits assumed) above
T1 sequence (P05556 21-798): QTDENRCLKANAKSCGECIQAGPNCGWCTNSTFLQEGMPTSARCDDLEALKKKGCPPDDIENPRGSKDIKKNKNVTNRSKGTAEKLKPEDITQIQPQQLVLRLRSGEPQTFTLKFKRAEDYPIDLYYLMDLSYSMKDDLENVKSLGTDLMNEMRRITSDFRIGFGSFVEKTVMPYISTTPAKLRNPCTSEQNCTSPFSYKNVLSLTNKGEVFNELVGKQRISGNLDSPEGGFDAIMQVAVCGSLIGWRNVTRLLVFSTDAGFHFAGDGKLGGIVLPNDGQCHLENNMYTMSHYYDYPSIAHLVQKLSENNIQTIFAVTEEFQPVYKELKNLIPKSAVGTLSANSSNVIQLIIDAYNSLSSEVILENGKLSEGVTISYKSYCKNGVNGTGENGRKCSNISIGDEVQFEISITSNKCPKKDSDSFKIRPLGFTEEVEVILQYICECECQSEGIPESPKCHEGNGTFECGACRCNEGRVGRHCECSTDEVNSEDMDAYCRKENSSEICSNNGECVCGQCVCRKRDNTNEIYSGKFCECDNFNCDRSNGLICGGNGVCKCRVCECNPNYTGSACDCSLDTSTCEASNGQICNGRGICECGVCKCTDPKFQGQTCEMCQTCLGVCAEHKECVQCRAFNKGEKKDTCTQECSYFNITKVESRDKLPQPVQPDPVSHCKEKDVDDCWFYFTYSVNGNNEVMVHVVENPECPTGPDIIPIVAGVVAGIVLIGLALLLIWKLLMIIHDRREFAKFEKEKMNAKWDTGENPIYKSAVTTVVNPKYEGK

Regarding GACRRETAWACGA, the “blocking of attachment of CHO C11 cells to fibronectin” value in the assay on α5β1 integrin [1] is on record as “could not block”. In addition, the “promotion of cell adhesion by immobilized peptide” value in the assay on α5β1 integrin [2] (B2/α27 compared with B2/Cl cells, FIG. 8) is listed as “promoted α5β1-mediated adhesion”. Besides, the “attachment of cell lines lacking these integrins or expressing non-human α5β1 to immobilized peptide” value in the assay with α5β1 integrin [2] (immobilized peptide) is reported as “did not attach”. Besides, the “inhibition of B2/α27 attachment to immobilized RRETAWA-containing peptide” value in the assay with α5β1 integrin [2] (inhibitor at 1 mM, FIG. 8) is listed as “inhibited”. At α5β1 integrin [3], the “binding of peptide-displaying phage to the α5β1 integrin” value is “selectively bind”.
